Data taken from patent US6352836B1 (priority 1997, dated 2002).
Like-named read-outs stand apart in the source and are kept apart here.

Target: PHIS-PDiTPx2235 (Dirofilaria immitis, UniProt O17433)
Format: biochemical, D. immitis
Settings: for Percent protection (Mean ± SD): PHIS-PDiTPx2235 0.75 mg/ml, DTT 10 mM

Chain of PHIS-PDiTPx2235 (O17433 whole entry, looked up): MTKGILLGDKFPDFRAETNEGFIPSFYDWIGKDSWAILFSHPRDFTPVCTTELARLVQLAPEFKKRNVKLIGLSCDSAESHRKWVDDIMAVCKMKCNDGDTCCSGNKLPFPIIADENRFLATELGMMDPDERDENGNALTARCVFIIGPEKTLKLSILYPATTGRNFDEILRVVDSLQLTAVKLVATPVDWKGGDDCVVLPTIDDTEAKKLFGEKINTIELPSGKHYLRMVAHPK

CCN1C(=O)C=CC1=O [NEM, N-ethylmaleimide]
Percent protection (Mean ± SD) (NEM 0.1 mM): 97.3 ± 2.40% | Percent protection (Mean ± SD) (NEM 1.0 mM): 76.7 ± 1.13% | Percent protection (Mean ± SD) (NEM 2.0 mM): 77.9 ± 1.87% | Percent protection (Mean ± SD) (NEM 4.0 mM): 58.4 ± 1.57% | Percent protection (Mean ± SD) (NEM 8.0 mM): 21.1 ± 0.33% | Percent protection (Mean ± SD) (NEM 16.0 mM): 0.0 ± 0.0% | Percent protection (Mean ± SD) (NEM 32.0 mM): 0.0 ± 0.0% | inhibition of H2O2 removal by PHIS-PDiTPx2235 (inhibition concentration dependent (Table 5)): prevented PHIS-PDiTPx2235 from removing H2O2
